Measured values as given in patent publication US20250206732A1, “COMPOUNDS AND METHODS FOR THE TARGETED DEGRADATION OF KRAS” (Arvinas Operations, Inc., priority 2022, published 2025).

Biological target: T1, AsPC-1 HiBiT-KRASG12D (Homo sapiens, UniProt P01116, G12D)
T1 construct: insert the HiBiT tag onto the N-terminus of one or more of the endogenous KRAS alleles; endogenous in cells; host or cells: AsPC-1 (ATCC CRL-1682), CRISPR-Cas9 knock-in clone, one tagged allele
Test: HiBiT degradation assay (G12D), AsPC-1 HiBiT-KRASG12D cells
Assay type: cell-based
Details: 24 hours treatment; for Dmax: ASPC1, AsPC-1 HiBiT-KRASG12D cells, maximum degradation observed; for DC50: AsPC-1 HiBiT-KRASG12D cells, HiBiT luminescence
In short: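 In this degradation format, an engineered AsPC-1 clone with HiBiT fused to the KRAS N-terminus is exposed to compounds for 24 hours, after which remaining tagged protein is quantified by lytic HiBiT luminescence.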

T1 sequence (P01116 1-188 isoform P01116-2 G12D): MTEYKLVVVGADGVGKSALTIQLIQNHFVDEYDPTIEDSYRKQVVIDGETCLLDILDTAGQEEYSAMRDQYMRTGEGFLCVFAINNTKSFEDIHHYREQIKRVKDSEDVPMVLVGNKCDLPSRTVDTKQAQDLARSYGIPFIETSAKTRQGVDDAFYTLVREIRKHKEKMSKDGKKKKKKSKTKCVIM

Compound	Dmax [%]	DC50 [µM]
CCc1cccc2cc(O)cc(-c3ncc4c(N5CC6CCC(C5)N6)nc(OC[C@@H]5CC[C@@H](COC(=O)N6CC(Oc7cc([C@H](C(=O)N8C[C@H](O)C[C@H]8C(=O)N[C@@H](C)c8ccc(-c9scnc9C)cc8)C(C)C)on7)C6)N5C)nc4c3F)c12 [Compound 294]	80 to 100	< 0.6
CCc1cccc2cc(O)cc(-c3ncc4c(N5CC6CCC(C5)N6)nc(OC[C@@]56CCCN5[C@H](COC(=O)N5C[C@@H](C)N(c7cc([C@H](C(=O)N8C[C@H](O)C[C@H]8C(=O)N[C@@H](C)c8ccc(-c9scnc9C)cc8)C(C)C)on7)C[C@@H]5C)CC6)nc4c3F)c12 (stereo in doubt) [Compound 299, [(3S,8R)-8-[[4-(3,8-diazabicyclo[3.2.1]octan-3-yl)-7-(8-ethyl-3-hydroxy-1-naphthyl)-8-fluoro-pyrido[4,3-d]pyrimidin-2-yl]oxymethyl]-1,2,3,5,6,7-hexahydropyrrolizin-3-yl]methyl (2S,5R)-4-[5-[(1R)-1-[(2S,4R)-4-hydroxy-2-[[(1S)-1-[4-(4-methylthiazol-5-yl)phenyl]ethyl]carbamoyl]pyrrolidine-1-carbonyl]-2-methyl-propyl]isoxazol-3-yl]-2,5-dimethyl-piperazine-1-carboxylate]	80 to 100	< 0.6
CCc1cccc2cc(O)cc(-c3ncc4c(N5CC6CCC(C5)N6)nc(OCCN5CCC(F)(CN6CCN(c7cc([C@@H](C(=O)N8C[C@H](O)C[C@H]8C(=O)N[C@@H](C)c8ccc(-c9ccnn9C)cc8)C(C)C)on7)CC6)CC5)nc4c3F)c12 [Compound 197, (2S,4R)-1-[(2S)-2-(3-{4-[(1-{2-[(4-{3,8-diazabicyclo[3.2.1]octan-3-yl}-7-(8-ethyl-3-hydroxynaphthalen-1-yl)-8-fluoropyrido[4,3-d]pyrimidin-2-yl)oxy]ethyl}-4-fluoropiperidin-4-yl)methyl]piperazin-1-yl}-1,2-oxazol-5-yl)-3-methylbutanoyl]-4-hydroxy-N-[(1S)-1-[4-(1-methyl-1H-pyrazol-5-yl)phenyl]ethyl] pyrrolidine-2-carboxamide]	< 20	1 to 3
CCc1cccc2cc(O)cc(-c3ncc4c(N5CC6CCC(C5)N6)nc(OCCN5CCC[C@H](CN6CCN(c7cc([C@H](C(=O)N8C[C@H](O)C[C@H]8C(=O)N[C@@H](C)c8ccc(-c9scnc9C)cc8)C(C)C)on7)CC6)C5)nc4c3F)c12 [Compound 243, (2S,4R)-1-[(2R)-2-[3-[4-[(3R)-1-[2-[[4-(3,8-diazabicyclo[3.2.1]octan-3-yl)-7-(8-ethyl-3-hydroxy-1-naphthyl)-8-fluoro-pyrido[4,3-d]pyrimidin-2-yl]oxyethyl]-3-piperidyl]methyl]piperazin-1-yl]isoxazol-5-yl]-3-methyl-butanoyl]-4-hydroxy-N-[(1S)-1-[4-(4-methylthiazol-5-yl)phenyl]ethyl]pyrrolidine-2-carboxamide]	80 to 100	< 0.6
CCc1cccc2cc(O)cc(-c3ncc4c(N5CC6CCC(C5)N6)nc(OC[C@]56CCCN5[C@H](COC(=O)N5CCN(c7cc([C@@H](C(=O)N8C[C@H](O)C[C@H]8C(=O)N[C@@H](C)c8ccc(-c9scnc9C)cc8)C(C)C)on7)[C@@H](C)C5)CC6)nc4c3F)c12 [Compound 124, [(3S,7aR)-7a-{[(4-{3,8-diazabicyclo[3.2.1]octan-3-yl}-7-(8-ethyl-3-hydroxynaphthalen-1-yl)-8-fluoropyrido[4,3-d]pyrimidin-2-yl)oxy]methyl}-hexahydro-1H-pyrrolizin-3-yl]methyl (3S)-4-{5-[(2S)-1-[(2S,4R)-4-hydroxy-2-{[(1S)-1-[4-(4-methyl-1,3-thiazol-5-yl)phenyl]ethyl]carbamoyl}pyrrolidin-1-yl]-3-methyl-1-oxobutan-2-yl]-1,2-oxazol-3-yl}-3-methylpiperazine-1-carboxylate]	< 20	< 0.6
C#Cc1c(F)ccc2cc(O)cc(-c3ncc4c(N5CC6CCC(C5)N6)nc(OCCN5CCC(OC6CN(c7cc([C@@H](C(=O)N8C[C@H](O)C[C@H]8C(=O)N[C@@H](C)c8ccc(-c9scnc9C)cc8)C(C)C)on7)C6)CC5)nc4c3F)c12 [Compound 158]	80 to 100	< 0.6
